Results as given in patent US20140322315A1, “CYSTEAMINE AND/OR CYSTAMINE FOR TREATING ISCHEMIC INJURY” (The Regents of the University of California, priority 2011, published 2014).

Test system: adiponectin
Experiment: Serum total and multimeric adiponectin in subjects with NAFLD treated 24 weeks with EC-cysteamine
Assay type: in vivo, human
Excerpt: Eleven children ≧10 years, with biopsy-proven NAFLD and an alanine aminotransferase (ALT) level ≧60 IU/L, were enrolled. They were either newly diagnosed or had not received specific therapy for NAFLD such as vitamin E or insulin-sensitizing drugs for at least 3 months before entering the study. All had undertaken standard of care lifestyle changes involving diet and exercise for more than 3 months. The study's primary outcome measure was normalization (≦40 IU/L) or 50% reduction in baseline serum ALT at 24 weeks of EC-cysteamine therapy; these subjects were deemed responders.
Subjects were treated for 24 wks and remained monitored for 24 weeks following its discontinuation. The mean EC-cysteamine dose ingested was 654 mg twice daily or 15.2 mg/kg/day (median dose 900 mg) for 24 wks.
During the pilot study blood was collected at pre-defined intervals. Serum was stored at −80° C. until time of assay. Adequate serum volumes were available in 10 of the 11 subjects with NAFLD and only up to 16 weeks post-treatment.
Total and multimeric adiponectin levels were measured in serum taken from: (1) subject with NAFLD collected at 0 and 24 wks of cysteamine therapy and again 16 wks after stopping therapy (i.e., 40 weeks); (2) pretreated 0-week subjects with NAFLD and adults without NAFLD at room temperature and at 37° C. and also after incubation with cysteamine 90 μM for 1 hour at 37° C.; and (3) pretreated 0-week subjects with NAFLD before and after incubation with cysteamine at varying concentrations (15, 30, 45, 60, 90, 120 μM) for 1 hour at 37° C. to establish dose-response profile.
Sodium dodecyl sulfate polyacrylamide gel electrophoresis (SDS-PAGE) was performed according to standard Laemmli's method. Sample buffer for non-reducing, non-heat denaturing conditions contained 3% SDS; 50 mmol/1 Tris-HCL, pH 6.8 and 20% glycerol. Proteins were separated using 3-8% Tris-Acetate Gels (Invitrogen, Carlsbad Calif.) with Tris-Acetate running buffer per manufacturer instructions. For immunoblotting, proteins were transferred to nitrocellulose membranes. Membranes were washed with Tween (Tris-buffered Saline, 0.1% […]) and incubated with monoclonal antibody (1:500 BD Transduction Laboratories, San Diego, Calif.). After washing with Tris-buffered saline with 0.1% Tween (4×5 min) membranes were incubated with L-COR secondary antibodies (LI-COR Biotechnology, Lincoln Nebr.) at 1:20,000. Adiponectin multimers were detected and quantified using the LICOR imager and software analysis program. Relative distribution of adiponectin multimers was determined by dividing band density by total density (cellular adiponectin) or by total adiponectin as determined by ELISA (Millipore, Billerica, Mass.). The percentage of adionectin multimer was then multiplied by the total adiponectin level to calculate absolute oligomer value.

[1] = after discontinuing therapy at 24 weeks, P=0.01

With `NCCS.O=C(O)C(O)C(O)C(=O)O` (stereo not shown) [cysteamine bitartrate, Cysteamine bitartrate] the “mean percent change of HMW adiponectin from baseline” value (7 responders, 24 weeks) was 87.7%, the “mean percent change of LMW adiponectin from baseline” value (7 responders, 24 weeks) was 33.9% and the “mean percent change of MMW adiponectin from baseline” value (7 responders, 24 weeks) was 13.7%. For the same compound, the “mean percent change of total adiponectin from baseline” value (7 responders, 24 weeks) was 57.5%, the “all adiponectin multimer levels, difference from baseline” value (40-week timepoint (16 weeks off therapy)) was ≤ 2% and the “LMW adiponectin change between 24-week and 40-week timepoints” value (after discontinuing therapy at 24 weeks, P=0.009) was “significant mean percent reduction”. The “MMW adiponectin change between 24-week and 40-week timepoints” value [1] was “significant mean percent reduction”, the “total adiponectin change between 24-week and 40-week timepoints” value [1] was “significant mean percent reduction” and the “HMW adiponectin change between 24-week and 40-week timepoints” value (after discontinuing therapy at 24 weeks, P=0.02) was “significant mean percent reduction”. For the same compound, the “mean percent increase of total adiponectin from baseline” value (all subjects, 0-24 weeks oral EC-cysteamine, P=0.05) was 49.3%, the “mean percent increase of HMW adiponectin from baseline” value (all subjects, 24 weeks oral EC-cysteamine (15.2 mg/kg/day), P=0.02) was 53% and the “mean percent increase of MMW adiponectin from baseline” value (all subjects, 24 weeks oral EC-cysteamine, P=0.02) was 19%. The “mean percent increase of LMW adiponectin from baseline” value (all subjects, 24 weeks oral EC-cysteamine, P=0.03) was 29.4%.
